Results taken from patent publication US9707200B2, “Metabolism-improving agent comprising rare fatty acid” (KYOTO UNIVERSITY, priority 2012, dated 2017).

What was measured:
LXR = target: T1, LXR (Homo sapiens, UniProt Q13133); test: Antagonizing action on LXR by luciferase assay; format: cell-based; settings: for antagonizing action on LXR (relative luciferase activity): HepG2 cells, fatty acid + T0901317, 24 hr; for lipid synthesis suppressive action by the antagonizing action on LXR: overall finding from SREBP-1c, SREBP-1, SCD-1, FAS, ACC1, 2, triacylglycerol and LXR luciferase measurements in HepG2 cells
T1 construct: expressed in transfected cells; host or cells: HepG2 (human liver cancer-derived)
T1 sequence (Q13133 1-447): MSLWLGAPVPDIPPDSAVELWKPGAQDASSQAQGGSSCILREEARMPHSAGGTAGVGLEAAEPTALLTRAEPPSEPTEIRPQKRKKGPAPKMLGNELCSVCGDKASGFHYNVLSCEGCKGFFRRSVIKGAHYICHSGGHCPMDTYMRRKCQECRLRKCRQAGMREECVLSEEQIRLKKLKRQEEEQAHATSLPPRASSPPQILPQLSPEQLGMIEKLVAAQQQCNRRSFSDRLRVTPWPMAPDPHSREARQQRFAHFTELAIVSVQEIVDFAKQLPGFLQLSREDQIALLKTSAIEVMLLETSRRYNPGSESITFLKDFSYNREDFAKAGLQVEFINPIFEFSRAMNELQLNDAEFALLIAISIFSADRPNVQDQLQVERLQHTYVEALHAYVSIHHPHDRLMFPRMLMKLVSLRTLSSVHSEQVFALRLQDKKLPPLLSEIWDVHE
Description: In addition, the protein expression level of immature and mature SREBP-1c was measured. Cells treated as mentioned above were dispersed in buffer A (250 mM sucrose, 10 mM HEPES-KOH, 10 mM KCl, 1.5 mM MgCl2, 1 mM EDTA-Na, 1 mM EGTA-Na, pH 7.6) containing a protease inhibitor, passed 20 times through a 23 gauge injection needle, and centrifuged (1,000×g, 4° C., 5 min) to separate into supernatant 1 and precipitate 1. The precipitate 1 was re-dissolved in buffer B (20 mM HEPES-KOH, 0.42 M NaCl, 2.5% glycerol, 1.5 mM MgCl2, 1 mM EDTA-Na, 1 mM EGTA-Na, pH 7.6), and centrifuged (10^5×g, 4° C., 15 min). The obtained supernatant 2 was used as a nuclear fraction (including mature form). The supernatant 1 was further centrifuged (10^5×g, 4° C., 15 min), and the obtained precipitate 2 was dissolved in cell lysate (10 mM Tris-HCl, 100 mM NaCl, 1% SDS, 1 mM EDTA-Na, 1 mM EGTA-Na) and used as a membrane fraction (including immature form). Using these as samples, measurement was performed by Western blot method using anti-SREBP-1 polyclonal antibody (Santa Cruz). Using Dual luciferase system (Promega), antagonizing action on LXR was evaluated by luciferase assay. p3xIR1-tk-Luc, pCMX-hLXRa, pRL-CMX were introduced into HepG2 cell. After culture in a 0.1% BSA-containing serum-free medium containing various fatty acids and T0901317 for 24 hr, the luciferase activity was measured.

PPARα = target: T2, PPARα (Homo sapiens, UniProt Q07869); test: PPARα ligand activity, GAL4-PPARα reporter luciferase assay in CV-1 cells; format: cell-based; settings: 24 hr incubation, KetoA and HYA each at 30 μM, other fatty acids by a similar method
T2 construct: expressed in transfected cells; host or cells: CV-1 (African green monkey kidney)
T2 sequence (Q07869 239-466 limits assumed): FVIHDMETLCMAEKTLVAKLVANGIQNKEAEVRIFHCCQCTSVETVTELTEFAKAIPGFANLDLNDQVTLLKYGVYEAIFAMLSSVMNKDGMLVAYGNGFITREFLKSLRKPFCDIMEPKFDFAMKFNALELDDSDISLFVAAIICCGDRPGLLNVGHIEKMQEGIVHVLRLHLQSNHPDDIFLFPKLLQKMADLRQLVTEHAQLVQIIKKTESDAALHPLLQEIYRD
Description: To evaluate the function of oxo fatty acid and the like, PPARα, γ-activating action was measured first. The measurement was performed in reference to Nobuyuki Takahashi et al., FEES Letters 514 (2002) p. 315-322, “Dual action of isoprenols from herbal medicines on both PPARgamma and PPARalpha in 3T3-L1 adipocytes and HepG2 hepatocytes.”, the section of Materials and Methods “Reporter plasmids and luciferase assays”. To be specific, a plasmid containing DNA encoding a fused protein of PPARα, γ ligand binding region and GAL4 DNA binding region (pM-hPPARα or pM-hPPARγ), a reporter plasmid containing GAL4 binding DNA sequence linked to luciferase (p4xUASg-tk-luc), and internal control (pRL-CMV) to standardize transfection efficiency were introduced into CV-1 cell derived from the kidney of African green monkey. The ligand described below was added to the cells and, after incubation for 24 hr, luciferase activity was measured. As a ligand, KetoA and HYA were each added at 30 μM.
The concentration of the sample was adjusted with ethanol. Ethanol was used as a negative control, […], and GW7647 (10 nM) and Troglitazone (5 μM) were used as […].

HepG2 cells = test: Intracellular triacylglycerol accumulation by LXR agonist; format: cell-based, human; settings: 10 nM T0901317 + 60 μM fatty acid, 24 hr
Description: HepG2 cells (2.0×10^5 cells/mL) were cultured in DMEM medium containing 10% FES for 24 hr, and the medium was exchanged with 0.1% BSA-containing DMEM medium containing 10 nM LXR agonist T0901317 (Cayman Chemicals) and 60 μM various fatty acid. After culture for 24 hr, the cells were recovered, and total RNA was extracted using Sepasol reagent (Nacalai Tesque). After DNase treatment, reverse transcription was performed using SuperScriptII (Invitrogen) to give a cDNA solution. Using SYBR Green Mix (Bio-Rad, Richmond, Calif.) and gene-specific primer (Table 1), real-time PCR was performed as follows.
1. Reaction at 96° C., 15 min, 2. reaction at 96° C., 15 sec, 3. reaction at 60° C. for 30 sec, 4. measurement of fluorescence, 5. 2-4 were repeated 40 times, 6. the melting curve was measured from 65° C. to 95° C. at 0.4° C. intervals. As the internal standard, 18S rRNA was used. The genes involved in the fatty acid synthesis as measured were Sterol regulatory element binding protein-1c (SREBP-1c), Stearoyl coenzyme A desaturase-1 (SCD-1), Fatty acid synthase (FAS), and Acetyl CoA carboxylase-1 and -2 (ACC-1, 2). As for the amount of accumulated intracellular TG, the lipid was extracted with chloroform-methanol, and quantified by triglyceride-′E Test Wako (Wako Pure Chemical Industries, Ltd.).

PPARα agonist activity (relative luciferase activity) (PPARα)	SMILES	antagonizing action on LXR (relative luciferase activity) (LXR)	lipid synthesis suppressive action by the antagonizing action on LXR (LXR)	suppression of intracellular triacylglycerol increase by LXR agonist (HepG2 cells)
PPARα agonist activity	CCCCC/C=C\CC(O)CCCCCCCCC(=O)O (stereo not drawn) [HYA, 10-hydroxy-cis-12-octadecenoic acid]	significantly suppress the action of T0901317	strong lipid synthesis suppressive action	significantly suppressed
strong PPARα and γ agonist activity	CCCCC/C=C\CC(=O)CCCCCCCCC(=O)O [KetoA, 10-oxo-cis-12-octadecenoic acid]	significantly suppress the action of T0901317	strong lipid synthesis suppressive action	significantly suppressed
